Patent US10596172B2 (Celgene CAR LLC, priority 2008, dated 2020)

Experiments:
JAK3 [1] = biological target: T1, JAK3 (Homo sapiens (Human), UniProt P52333); assay: Omnia assay for potency assessment against the active form of JAK3; assay type: biochemical; conditions: read-out: JAK3 Inhibition
JAK3 [2] = biological target: T1, JAK3; assay: Mass spectrometry for Janus-3 kinase (JAK3); assay type: binding; conditions: 3 hrs at 10x excess, tryptic digest
Method: JAK3 kinase (33 pmols; Invitrogen) was incubated with (I-7) (327 pmols) for 3 hrs at 10× excess prior to tryptic digestion. Iodoacetamide was used as the alkylating agent after compound incubation. For tryptic digests a 5 ul aliquot (5.5 pmols) was diluted with 15 ul of 0.1% TFA prior to micro C18 Zip Tipping directly onto the MALDI target using alpha cyano-4-hydroxy cinnamic acid as the matrix (5 mg/ml in 0.1% TFA:Acetonitrile 50:50).
As depicted in FIG. 11, the expected peptide ([…]) to be modified was immediately evident as the largest peak at MH+ of 1725.88. This is the mass to be expected when compound I-7, with an adduct mass of 345.16, is added to the peptide mass of 1380.70. […] There was also evidence for a number of other modified peptides, however, their signals were low.
To further verify the presence of the modified peptides with compound I-7, the peptides at MH+ of 1725.88 and 1118.55 were subjected to PSD (MS/MS) analysis. A correlational analysis with the homo sapien database identified the correct peptides as being modified by I-7.
For tryptic digests the instrument was set in Reflectron mode with a pulsed extraction setting of 2200. Calibration was done using the Laser Biolabs Pep Mix standard ([…], 1296.69, 1672.92, 2093.09, 2465.20). […]

Erbb4 kinase domain = Erbb4 kinase domain (Homo sapiens (Human), UniProt Q15303); assay: Mass spectrometry for ERBB4; assay type: binding; conditions: 60 minutes at 10-fold excess of compound
Erbb4 kinase domain, sequence (Q15303 718-985): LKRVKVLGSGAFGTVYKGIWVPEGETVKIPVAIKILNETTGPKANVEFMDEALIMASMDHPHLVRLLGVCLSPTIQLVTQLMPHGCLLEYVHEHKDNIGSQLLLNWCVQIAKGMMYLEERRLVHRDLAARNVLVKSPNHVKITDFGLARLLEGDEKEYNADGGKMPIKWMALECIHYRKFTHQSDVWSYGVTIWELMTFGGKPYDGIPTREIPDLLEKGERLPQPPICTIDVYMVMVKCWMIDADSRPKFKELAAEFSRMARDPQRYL
Method: Erbb4 kinase domain (Upstate) was incubated with compound for 60 minutes at 10-fold excess of compound I-4 and I-11 to protein. 1 μl aliquots of the samples (total volume of 4.24 ul) were diluted with 10 μl of 0.1% TFA prior to micro C4 ZipTipping directly onto the MALDI target using Sinapinic acid as the desorption matrix (10 mg/ml in 0.1% TFA:Acetonitrile 50:50). For intact protein mass measurement the instrument was set in Linear mode using a pulsed extraction setting of 16,952 for the myoglobin standard used to calibrate the instrument (Shimadzu Axima TOF^2).
Intact ErbB4 protein occurs at MH+ of 35850 with corresponding sinapinic (matrix) adducts occurring about 200 Da higher. A stoichiometric incorporation of the test compound (I-4 and I-11) (Mw of 410 Da) produced a new mass peak which is approximately 410 Da higher (MH+ of 36260).

T1 sequence (P52333 whole entry): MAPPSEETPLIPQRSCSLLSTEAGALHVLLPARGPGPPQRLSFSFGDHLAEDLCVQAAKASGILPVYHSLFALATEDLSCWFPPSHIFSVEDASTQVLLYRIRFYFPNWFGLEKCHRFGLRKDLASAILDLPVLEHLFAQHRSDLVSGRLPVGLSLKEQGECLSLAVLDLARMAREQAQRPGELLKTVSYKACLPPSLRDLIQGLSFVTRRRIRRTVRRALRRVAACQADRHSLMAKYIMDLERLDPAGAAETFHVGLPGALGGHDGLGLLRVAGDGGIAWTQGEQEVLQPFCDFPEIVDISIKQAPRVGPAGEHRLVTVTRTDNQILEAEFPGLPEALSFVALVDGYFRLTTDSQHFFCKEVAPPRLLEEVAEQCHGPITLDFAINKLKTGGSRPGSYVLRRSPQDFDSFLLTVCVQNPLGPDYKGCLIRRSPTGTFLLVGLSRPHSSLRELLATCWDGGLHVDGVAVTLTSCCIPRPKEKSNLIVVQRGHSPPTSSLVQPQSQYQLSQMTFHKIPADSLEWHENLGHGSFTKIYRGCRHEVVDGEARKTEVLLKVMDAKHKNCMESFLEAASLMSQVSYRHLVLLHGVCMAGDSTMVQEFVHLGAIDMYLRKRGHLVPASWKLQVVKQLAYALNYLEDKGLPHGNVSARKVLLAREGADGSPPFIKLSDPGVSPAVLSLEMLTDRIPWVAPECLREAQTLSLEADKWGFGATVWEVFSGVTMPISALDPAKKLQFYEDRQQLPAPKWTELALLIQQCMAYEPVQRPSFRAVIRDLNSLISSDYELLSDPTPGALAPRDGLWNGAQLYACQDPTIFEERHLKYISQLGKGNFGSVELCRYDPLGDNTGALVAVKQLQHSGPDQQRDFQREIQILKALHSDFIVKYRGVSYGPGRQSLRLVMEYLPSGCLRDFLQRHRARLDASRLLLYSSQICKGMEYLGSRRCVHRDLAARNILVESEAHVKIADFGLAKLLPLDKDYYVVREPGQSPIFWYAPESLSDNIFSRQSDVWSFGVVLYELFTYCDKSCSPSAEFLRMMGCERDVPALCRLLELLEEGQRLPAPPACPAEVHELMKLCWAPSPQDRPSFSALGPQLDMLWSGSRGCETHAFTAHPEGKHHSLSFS

IC50 (JAK3 [1]): < 10 nM
covalent modification of JAK3 peptide LVMEYLPSGCLR (Cys909) by mass spectrometry (JAK3 [2]): measurable modification
covalent modification of ErbB4 by mass spectrometry (Erbb4 kinase domain): covalent modification
Structure (SMILES): Cc1cnc(Nc2cccc(S(N)(=O)=O)c2)nc1Nc1ccc2c(c1)CCN(C(=O)CCl)C2 [Compound I-11, 3-(4-(2-(2-chloroacetyl)-1,2,3,4-tetrahydroisoquinolin-6-ylamino)-5-methylpyrimidin-2-ylamino)benzenesulfonamide]
